Measurements as given in ChEMBL document CHEMBL5346899, “PKM2/PDK1 dual-targeted shikonin derivatives restore the sensitivity of EGFR-mutated NSCLC cells to gefitinib by remodeling glucose metabolism” (Eur J Med Chem, 2023).
pIC50: −log10 of the molar value. Active and inactive are the calls of the source. The rule behind the calls is not given here.

Assays:
[1] = tested on: NCI-H1975; test: cells; assay type: functional, cell-based; conditions: Homo sapiens, NCI-H1975, 24 h
Description: Antiproliferative activity against human NCI-H1975 cells assessed as inhibition of cell growth incubated for 24 hrs by CCK-8 assay

[2] = tested on: HCC827; test: cells; assay type: functional, cell-based; conditions: Homo sapiens, HCC827, 24 h
Description: Antiproliferative activity against human HCC827 cells assessed as inhibition of cell growth incubated for 24 hrs by CCK-8 assay

[3] = tested on: NCI-H1975; test: Antiproliferative activity against human NCI-H1975 cells assessed as inhibition of clone formation rate; assay type: functional, cell-based
[4] = tested on: NCI-H1299; test: Induction of apoptosis in human NCI-H1299 cells assessed as early apoptotic cells at 2 micromol/L incubated for 24 hrs by Annexin V-FITC/PI staining based analysis (reference value: 2.43%); assay type: functional; conditions: dose 2 µmol/L, at 2 µM
[5] = tested on: NCI-H1299; test: Induction of apoptosis in human NCI-H1299 cells assessed as late apoptotic cells at 2 micromol/L incubated for 24 hrs by Annexin V-FITC/PI staining based analysis (reference value: 14.9%); assay type: functional; conditions: dose 2 µmol/L, at 2 µM
[6] = tested on: A549; test: Induction of apoptosis in human A549 cells assessed as late apoptotic cells at 2 micromol/L incubated for 24 hrs by Annexin V-FITC/PI staining based analysis (reference value: 3.18%); assay type: functional; conditions: dose 2 µmol/L, at 2 µM
[7] = tested on: NCI-H1975; test: Induction of apoptosis in human NCI-H1975 cells assessed as early apoptotic cells at 2 micromol/L incubated for 24 hrs by Annexin V-FITC/PI staining based analysis (reference value: 1.88%); assay type: functional; conditions: dose 2 µmol/L, at 2 µM
[8] = tested on: HCC827; test: Induction of apoptosis in human HCC827 cells assessed as early apoptotic cells at 1 micromol/L incubated for 24 hrs by Annexin V-FITC/PI staining based analysis (reference value: 9.14%); assay type: functional; conditions: dose 1 µmol/L, at 1 µM
[9] = tested on: HCC827; test: Induction of apoptosis in human HCC827 cells assessed as late apoptotic cells at 1 micromol/L incubated for 24 hrs by Annexin V-FITC/PI staining based analysis (reference value: 8.42%); assay type: functional; conditions: dose 1 µmol/L, at 1 µM
[10] = tested on: HCC827; test: Induction of apoptosis in human HCC827 cells assessed as late apoptotic cells at 2 micromol/L incubated for 24 hrs by Annexin V-FITC/PI staining based analysis (reference value: 8.42%); assay type: functional; conditions: dose 2 µmol/L, at 2 µM
[11] = tested on: NCI-H1975; test: Induction of apoptosis in human NCI-H1975 cells assessed as regulation of Caspase-9 expression by Western blot analysis; assay type: functional, cell-based
[12] = tested on: NCI-H1975; test: Induction of apoptosis in human NCI-H1975 cells assessed as regulation of Caspase-3 expression by Western blot analysis; assay type: functional, cell-based
[13] = tested on: NCI-H1975; test: Induction of apoptosis in human NCI-H1975 cells assessed as regulation of cleaved Caspase-3 expression by Western blot analysis; assay type: functional, cell-based
[14] = tested on: NCI-H1975; test: Induction of apoptosis in human NCI-H1975 cells assessed as regulation of FADD expression by Western blot analysis; assay type: functional, cell-based
[15] = tested on: NCI-H1975; test: Induction of apoptosis in human NCI-H1975 cells assessed as regulation of Fas expression by Western blot analysis; assay type: functional, cell-based
[16] = tested on: NCI-H1975; test: Induction of apoptosis in human NCI-H1975 cells assessed as regulation of Smac expression by Western blot analysis; assay type: functional, cell-based
[17] = tested on: NCI-H1975; test: Induction of apoptosis in human NCI-H1975 cells assessed as regulation of cleaved caspase-8 expression by Western blot analysis; assay type: functional, cell-based
[18] = tested on: NCI-H1299; test: Induction of intracellular ROS accumulation in human NCI-H1299 cells; assay type: functional, cell-based
[19] = tested on: A549; test: Induction of intracellular ROS accumulation in human A549 cells; assay type: functional, cell-based
[20] = tested on: NCI-H1975; test: Induction of intracellular ROS accumulation in human NCI-H1975 cells; assay type: functional, cell-based
[21] = biological target: Pyruvate kinase PKM (Homo sapiens, UniProt P14618); test: Activation of PKM2 in siRNA mediated PKM2 knockdown human NCI-H1975 cells at 1 to 2 micromol/L by Western blot analysis; assay type: cell-based; conditions: dose 1-2 µmol/L
[22] = tested on: HCC827; test: Antiproliferative activity against siRNA mediated PKM2 knockdown human HCC827 cells assessed as inhibition of cell growth incubated for 24 hrs by CCK-8 assay; assay type: functional, cell-based; conditions: HCC827, 24 h
[23] = tested on: NCI-H1975; test: Effect on PKM2 protein expression in human NCI-H1975 cells at 1 to 2 micromol/L by Western blot analysis; assay type: functional, cell-based; conditions: dose 1-2 µmol/L
[24] = tested on: HCC827; test: Downregulation of PDK1 protein expression in human HCC827 cells at 1 to 2 micromol/L by Western blot analysis; assay type: functional, cell-based; conditions: dose 1-2 µmol/L
[25] = tested on: HCC827; test: Upregulation of PDH protein expression in human HCC827 cells at 1 to 2 micromol/L by Western blot analysis; assay type: functional, cell-based; conditions: dose 1-2 µmol/L
[26] = tested on: NCI-H1975; test: Induction of apoptosis in human NCI-H1975 cells transfected with siRNA assessed as early apoptotic cells at 1 micromol/L incubated for 24 hrs by Annexin V-FITC/PI staining based analysis (reference value: 1.16%); assay type: functional; conditions: dose 1 µmol/L, at 1 µM
[27] = tested on: NCI-H1975; test: Induction of apoptosis in human NCI-H1975 cells with siRNA mediated […] knockdown assessed as early apoptotic cells at 1 micromol/L incubated for 24 hrs by Annexin V-FITC/PI staining based analysis (reference value: 2.54%); assay type: functional; conditions: dose 1 µmol/L, at 1 µM
[28] = tested on: NCI-H1975; test: Induction of apoptosis in human NCI-H1975 cells with siRNA mediated […] knockdown assessed as early apoptotic cells at 2 micromol/L incubated for 24 hrs by Annexin V-FITC/PI staining based analysis (reference value: 2.54%); assay type: functional; conditions: dose 2 µmol/L, at 2 µM
[29] = tested on: NCI-H1975; test: Induction of apoptosis in human NCI-H1975 cells with siRNA mediated […] knockdown assessed as late apoptotic cells at 1 micromol/L incubated for 24 hrs by Annexin V-FITC/PI staining based analysis (reference value: 6.25%); assay type: functional; conditions: dose 1 µmol/L, at 1 µM
[30] = tested on: NCI-H1975; test: Inhibition of glycolysis in human NCI-H1975 cells assessed as reduction in glucose consumption incubated for 24 hrs by colorimetric assay; assay type: functional, cell-based
[31] = tested on: NCI-H1975; test: Inhibition of glycolysis in human NCI-H1975 cells assessed as reduction in lactate production incubated for 1 hrs by colorimetric assay; assay type: functional, cell-based
[32] = tested on: NCI-H1975; test: Inhibition of NADPH production in human NCI-H1975 cells incubated for 2 hrs by NADP+/NADPH assay; assay type: functional, cell-based
[33] = tested on: NCI-H1975; test: Antitumor activity against human NCI-H1975 cells xenografted in athymic nu/nu mouse assessed as reduction in tumor size at 2.4 to 4.8 mg/kg, ip administered every 2 days for 11 days by vernier caliper method; assay type: functional, organism-based; conditions: dose 2.4-4.8 mg/kg, time 11.0 day
[34] = tested on: NCI-H1975; test: Antitumor activity against human NCI-H1975 cells xenografted in athymic nu/nu mouse assessed as inhibition of tumor cell proliferation at 2.4 to 4.8 mg/kg, ip administered every 2 days for 11 days by Ki67 staining based analysis; assay type: functional, organism-based; conditions: dose 2.4-4.8 mg/kg, time 11.0 day
[35] = tested on: NCI-H1975; test: Synergistic antiproliferative activity against human NCI-H1975 cells harboring EGFR mutant assessed as cell growth inhibition at 0.5 to 4 micromol/L incubated for 24 hrs in presence of 2.5 to 20 micromol/L gefitinib by CCK-8 assay; assay type: functional, cell-based; conditions: dose 0.5-4 µmol/L
[36] = tested on: NCI-H1975; test: Induction of apoptosis in human NCI-H1975 cells assessed as early apoptotic cells at 0.5 micromol/L incubated for 24 hrs by Annexin V-FITC/PI staining based analysis (reference value: 2.55%); assay type: functional; conditions: dose 0.5 µmol/L, at 0.5 µM
[37] = tested on: NCI-H1975; test: Induction of apoptosis in human NCI-H1975 cells assessed as live cells at 0.5 micromol/L incubated for 24 hrs in presence of gefitinib by Annexin V-FITC/PI staining based analysis (reference value: 88.7%); assay type: functional; conditions: dose 0.5 µmol/L, at 0.5 µM

Sequence of Pyruvate kinase PKM (P14618 2-531 limits assumed): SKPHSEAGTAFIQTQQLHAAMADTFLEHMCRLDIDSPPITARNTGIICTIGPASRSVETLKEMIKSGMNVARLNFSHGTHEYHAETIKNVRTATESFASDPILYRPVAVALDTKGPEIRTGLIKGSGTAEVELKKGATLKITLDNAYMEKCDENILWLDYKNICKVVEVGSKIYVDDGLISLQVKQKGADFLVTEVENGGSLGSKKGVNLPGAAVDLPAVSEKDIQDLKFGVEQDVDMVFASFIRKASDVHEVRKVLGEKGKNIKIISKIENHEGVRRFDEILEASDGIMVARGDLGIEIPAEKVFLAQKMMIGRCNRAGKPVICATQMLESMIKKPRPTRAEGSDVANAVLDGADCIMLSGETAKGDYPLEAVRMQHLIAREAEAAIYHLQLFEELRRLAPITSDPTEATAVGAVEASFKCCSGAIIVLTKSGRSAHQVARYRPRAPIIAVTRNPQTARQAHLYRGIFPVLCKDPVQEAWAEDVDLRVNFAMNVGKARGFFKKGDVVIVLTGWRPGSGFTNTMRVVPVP

COC(=O)[C@H](CS[C@H](CC=C(C)C)C1=CC(=O)c2c(O)ccc(O)c2C1=O)NC(=O)CCCC[C@@H]1CCSC(c2ccccc2C)S1 (some centres not stated)
pIC50 [1]: 5.82
pIC50 [2]: 5.28
Activity [3]: Dose-Dependent Effect
Activity [4]: 2.68%
Activity [5]: 24.5%
Activity [6]: 6.46%
Activity [7]: 22.2%
Activity [8]: 16.5%
Activity [9]: 12.1%
Activity [10]: 41.1%
Activity [11]: Active
Activity [12]: Active
Activity [13]: Active
Activity [14]: Active
Activity [15]: Active
Activity [16]: Active
Activity [17]: Active
Activity [18]: Active
Activity [19]: Active
Activity [20]: Active
Activity [21]: inactive
pIC50 [22]: 4.89
Activity [23]: inactive
Activity [24]: inactive
Activity [25]: Active
Activity [26]: 3.44%
Activity [27]: 1.82%
Activity [28]: 2.67%
Activity [29]: 4.95%
inhibition [30]: Active
inhibition [31]: Active
inhibition [32]: Active
Activity [33]: Active
Activity [34]: Active
Activity [35]: Active
Activity [36]: 1.54%
Activity [37]: 57.5%
